Experimental data: PubChem BioAssay (NCI)
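Following 48 hours of exposure in 96-well plates, responses at five concentrations were used to interpolate endpoints linearly. GI50 marks 50% less growth. The concentration for full growth arrest is given as TGI.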

Legend:
Assay in all cases: NCI tumour cell line growth inhibition, 48 h
SR leukemia = test system: SR leukemia
RPMI-8226 leukemia = test system: RPMI-8226 leukemia
OVCAR-5 ovarian = test system: OVCAR-5 ovarian
MOLT-4 leukemia = test system: MOLT-4 leukemia
CAKI-1 renal = test system: CAKI-1 renal
UACC-257 melanoma = test system: UACC-257 melanoma
UO-31 renal = test system: UO-31 renal
SN12C renal = test system: SN12C renal
HS 578T breast = test system: HS 578T breast
NCI-H460 lung = test system: NCI-H460 lung
BT-549 breast = test system: BT-549 breast
HCT-116 colon = test system: HCT-116 colon
NCI-H522 lung = test system: NCI-H522 lung
NCI-H23 lung = test system: NCI-H23 lung
786-0 renal = test system: 786-0 renal
A498 renal = test system: A498 renal
SNB-19 CNS = test system: SNB-19 CNS
KM12 colon = test system: KM12 colon
DU-145 prostate = test system: DU-145 prostate
MDA-MB-231 breast = test system: MDA-MB-231 breast
MCF7 breast = test system: MCF7 breast
NCI/ADR-RES ovarian = test system: NCI/ADR-RES ovarian
MDA-MB-435 = test system: MDA-MB-435
HOP-92 NSCLC = test system: HOP-92 NSCLC
M14 melanoma = test system: M14 melanoma
HCT-15 colon = test system: HCT-15 colon
UACC-62 melanoma = test system: UACC-62 melanoma
HT29 colon = test system: HT29 colon
A549 NSCLC = test system: A549 NSCLC
T-47D breast = test system: T-47D breast
NCI-H226 lung = test system: NCI-H226 lung
RXF 393 renal = test system: RXF 393 renal
OVCAR-8 ovarian = test system: OVCAR-8 ovarian
MALME-3M melanoma = test system: MALME-3M melanoma
PC-3 prostate = test system: PC-3 prostate
SW-620 colon = test system: SW-620 colon
SNB-75 CNS = test system: SNB-75 CNS
SF-295 CNS = test system: SF-295 CNS
SK-MEL-2 melanoma = test system: SK-MEL-2 melanoma
SK-MEL-28 melanoma = test system: SK-MEL-28 melanoma
SF-268 CNS = test system: SF-268 CNS
HCC-2998 colon = test system: HCC-2998 colon
EKVX NSCLC = test system: EKVX NSCLC
SK-MEL-5 melanoma = test system: SK-MEL-5 melanoma
CCRF-CEM leukemia = test system: CCRF-CEM leukemia
TK-10 renal = test system: TK-10 renal
OVCAR-4 ovarian = test system: OVCAR-4 ovarian
ACHN renal = test system: ACHN renal
SF-539 CNS = test system: SF-539 CNS
HL-60(TB) leukemia = test system: HL-60(TB) leukemia
IGROV1 ovarian = test system: IGROV1 ovarian
OVCAR-3 ovarian = test system: OVCAR-3 ovarian
SK-OV-3 ovarian = test system: SK-OV-3 ovarian
LOX IMVI melanoma = test system: LOX IMVI melanoma
K-562 leukemia = test system: K-562 leukemia

CCN(CC)CCCC(C)Nc1c2ccc(Cl)cc2nc2cc(OC)c(OC)cc12 (stereo not given) gave a GI50 (SR leukemia) of 1270 nM, a TGI (SR leukemia) of 13600 nM and a GI50 (RPMI-8226 leukemia) of 2470 nM. It also gave a TGI (RPMI-8226 leukemia) of 6660 nM, a GI50 (OVCAR-5 ovarian) of 2180 nM and a TGI (OVCAR-5 ovarian) of 8530 nM. The GI50 (MOLT-4 leukemia) was 594 nM, the TGI (MOLT-4 leukemia) was 12600 nM and the GI50 (CAKI-1 renal) was 2010 nM. For the same compound, the TGI (CAKI-1 renal) was 5780 nM, the GI50 (UACC-257 melanoma) was 2230 nM and the TGI (UACC-257 melanoma) was 4100 nM. The GI50 (UO-31 renal) was 1430 nM, the TGI (UO-31 renal) was 2890 nM and the GI50 (SN12C renal) was 3310 nM. For the same compound, the TGI (SN12C renal) was 17800 nM, the GI50 (HS 578T breast) was 2750 nM and the TGI (HS 578T breast) was 10100 nM. The GI50 (NCI-H460 lung) was 1300 nM, the TGI (NCI-H460 lung) was 4050 nM and the GI50 (BT-549 breast) was 3870 nM. For the same compound, the TGI (BT-549 breast) was 17800 nM, the GI50 (HCT-116 colon) was 861 nM and the TGI (HCT-116 colon) was 4280 nM. It also gave a GI50 (NCI-H522 lung) of 2350 nM, a TGI (NCI-H522 lung) of 5760 nM and a GI50 (NCI-H23 lung) of 1480 nM. The TGI (NCI-H23 lung) was 3250 nM, the GI50 (786-0 renal) was 1460 nM and the TGI (786-0 renal) was 5570 nM. It also gave a GI50 (A498 renal) of 7070 nM, a TGI (A498 renal) of 22200 nM and a GI50 (SNB-19 CNS) of 2180 nM. It also gave a TGI (SNB-19 CNS) of 8980 nM, a GI50 (KM12 colon) of 2540 nM and a TGI (KM12 colon) of 10600 nM. It also gave a GI50 (DU-145 prostate) of 2020 nM, a TGI (DU-145 prostate) of 11200 nM and a GI50 (MDA-MB-231 breast) of 1520 nM. For the same compound, the TGI (MDA-MB-231 breast) was 3970 nM, the GI50 (MCF7 breast) was 656 nM and the TGI (MCF7 breast) was 2900 nM. For the same compound, the GI50 (NCI/ADR-RES ovarian) was 2470 nM, the TGI (NCI/ADR-RES ovarian) was 9690 nM and the GI50 (MDA-MB-435) was 1650 nM. For the same compound, the TGI (MDA-MB-435) was 3080 nM, the GI50 (HOP-92 NSCLC) was 2330 nM and the TGI (HOP-92 NSCLC) was 8340 nM. For the same compound, the GI50 (M14 melanoma) was 1880 nM, the TGI (M14 melanoma) was 3560 nM and the GI50 (HCT-15 colon) was 1200 nM. The TGI (HCT-15 colon) was 3490 nM, the GI50 (UACC-62 melanoma) was 2140 nM and the TGI (UACC-62 melanoma) was 4690 nM. It also gave a GI50 (HT29 colon) of 1540 nM, a TGI (HT29 colon) of 10300 nM and a GI50 (A549 NSCLC) of 1850 nM. The TGI (A549 NSCLC) was 4560 nM, the GI50 (T-47D breast) was 7360 nM and the TGI (T-47D breast) was 32500 nM. For the same compound, the GI50 (NCI-H226 lung) was 1470 nM, the TGI (NCI-H226 lung) was 5390 nM and the GI50 (RXF 393 renal) was 1300 nM. It also gave a TGI (RXF 393 renal) of 2670 nM, a GI50 (OVCAR-8 ovarian) of 2280 nM and a TGI (OVCAR-8 ovarian) of 10300 nM. For the same compound, the GI50 (MALME-3M melanoma) was 1860 nM, the TGI (MALME-3M melanoma) was 3520 nM and the GI50 (PC-3 prostate) was 2080 nM. It also gave a TGI (PC-3 prostate) of 6280 nM, a GI50 (SW-620 colon) of 1350 nM and a TGI (SW-620 colon) of 7540 nM. It also gave a GI50 (SNB-75 CNS) of 1310 nM, a TGI (SNB-75 CNS) of 2600 nM and a GI50 (SF-295 CNS) of 1500 nM. For the same compound, the TGI (SF-295 CNS) was 3240 nM, the GI50 (SK-MEL-2 melanoma) was 2640 nM and the TGI (SK-MEL-2 melanoma) was 5730 nM. The GI50 (SK-MEL-28 melanoma) was 1720 nM, the TGI (SK-MEL-28 melanoma) was 3370 nM and the GI50 (SF-268 CNS) was 1930 nM. For the same compound, the TGI (SF-268 CNS) was 7030 nM, the GI50 (HCC-2998 colon) was 1490 nM and the TGI (HCC-2998 colon) was 3000 nM. The GI50 (EKVX NSCLC) was 1780 nM, the TGI (EKVX NSCLC) was 5060 nM and the GI50 (SK-MEL-5 melanoma) was 1810 nM. The TGI (SK-MEL-5 melanoma) was 3210 nM, the GI50 (CCRF-CEM leukemia) was 1520 nM and the TGI (CCRF-CEM leukemia) was 10300 nM. The GI50 (TK-10 renal) was 1990 nM, the TGI (TK-10 renal) was 5040 nM and the GI50 (OVCAR-4 ovarian) was 1340 nM. For the same compound, the TGI (OVCAR-4 ovarian) was 3330 nM, the GI50 (ACHN renal) was 1180 nM and the TGI (ACHN renal) was 2970 nM. For the same compound, the GI50 (SF-539 CNS) was 1640 nM, the TGI (SF-539 CNS) was 3190 nM and the GI50 (HL-60(TB) leukemia) was 2810 nM. It also gave a TGI (HL-60(TB) leukemia) of 9310 nM, a GI50 (IGROV1 ovarian) of 2150 nM and a TGI (IGROV1 ovarian) of 9960 nM. It also gave a GI50 (OVCAR-3 ovarian) of 1980 nM, a TGI (OVCAR-3 ovarian) of 7630 nM and a GI50 (SK-OV-3 ovarian) of 2650 nM. The TGI (SK-OV-3 ovarian) was 8870 nM, the GI50 (LOX IMVI melanoma) was 1230 nM and the TGI (LOX IMVI melanoma) was 2640 nM. The GI50 (K-562 leukemia) was 2400 nM and the TGI (K-562 leukemia) was 8770 nM.
